Results: patent US7732375B2, “Hexyl carboxanilides and their use for controlling fungi” (Bayer CropScience AG, priority 2003, dated 2010)

Test system: Venturia inaequalis
Experiment: Venturia test (apple)/protective
Format: in vivo
Details: Venturia inaequalis, 240 h, protective, application rate 100 g/ha, evaluation 10 days after inoculation, read-out: Efficacy in %
Method: (§1) • Solvents: 24.5 parts by weight of acetone • 24.5 parts by weight of dimethylacetamide • Emulsifier: 1 part by weight of alkylaryl polyglycol ether
(§2) To produce a suitable preparation of active compound, 1 part by weight of active compound is mixed with the stated amounts of solvents and emulsifier, and the concentrate is diluted with water to the desired concentration.
To test for protective activity, young plants are sprayed with the preparation of active compound at the stated application rate. After the spray coating has dried on, the plants are inoculated with an aqueous conidia suspension of the apple scab pathogen Venturia inaequalis and then remain in an incubation cabin at about 20° C. and 100% relative atmospheric humidity for 1 day.
The plants are then placed in a greenhouse at about 21° C. and a relative atmospheric humidity of about 90%.
(§3) Evaluation is carried out 10 days after the inoculation. 0% means an efficacy which corresponds to that of the control, whereas an efficacy of 100% means that no infection is observed.

Compound	pest or weed control at 100 g/ha
Cc1ccsc1C(=O)Nc1ccccc1C(C)CC(C)(C)C (stereo not drawn) [drawing 94]	96%
Cc1nc(C(F)(F)F)c(C(=O)Nc2ccccc2C(C)CC(C)(C)C)s1 (stereo not drawn) [drawing 103]	99%
CC(CC(C)(C)C)c1ccccc1NC(=O)c1cn(C)nc1Cl (stereo not drawn) [drawing 101]	100%
CCc1nn(C)c(Cl)c1C(=O)Nc1ccccc1C(C)CC(C)(C)C (stereo not drawn) [drawing 100]	92%
CCC(C)(C)CC(C)c1ccccc1NC(=O)c1sccc1C (stereo not drawn) [drawing 98]	99%
CCC(C)(C)CC(C)c1ccccc1NC(=O)C1=C(C)OCCS1 (stereo not drawn) [drawing 96]	100%
CC1=C(C(=O)Nc2ccccc2C(C)CC(C)(C)C)SCCO1 (stereo not drawn) [drawing 95]	100%
CCC(C)(C)CC(C)c1ccccc1NC(=O)c1ccoc1C (stereo not drawn) [drawing 97]	93%
CC(CC(C)(C)C)c1ccccc1NC(=O)c1cn(C)nc1C(F)(F)F (stereo not drawn) [drawing 99]	95%

Same assay, conditions: protective, application rate 100 g/ha, evaluation 10 days after inoculation

Compound	Efficacy in %
CC(CC(C)(C)C)c1ccccc1NC(=O)c1cn(C)nc1C(F)(F)F (stereo not drawn) [drawing 102]	99%

Test system: Botrytis cinerea
Experiment: Botrytis test (bean)/protective
Format: in vivo
Details: Botrytis cinerea, 48 h, protective, application rate 500 g/ha, evaluation 2 days after inoculation, read-out: Efficacy in %
Method: as §1, §2
To test for protective activity, young plants are sprayed with the preparation of active compound at the stated application rate. After the spray coating has dried on, 2 small pieces of agar colonized by Botrytis cinerea are placed onto each leaf. The inoculated plants are placed in a dark chamber at about 20° C. and 100% relative atmospheric humidity.
2 days after the inoculation, the size of the infected areas on the leaves is evaluated. 0% means an efficacy which corresponds to that of the control, whereas an efficacy of 100% means that no infection is observed.

Compound	pest or weed control at 500 g/ha
CCC(C)(C)CC(C)c1ccccc1NC(=O)C1=C(C)OCCS1 (stereo not drawn) [drawing 106]	100%
CC(CC(C)(C)C)c1ccccc1NC(=O)c1cn(C)nc1C(F)(F)F (stereo not drawn) [drawing 109]	100%
CCC(C)(C)CC(C)c1ccccc1NC(=O)c1sccc1C (stereo not drawn) [drawing 108]	100%
CC1=C(C(=O)Nc2ccccc2C(C)CC(C)(C)C)SCCO1 (stereo not drawn) [drawing 105]	95%
CCC(C)(C)CC(C)c1ccccc1NC(=O)c1ccoc1C (stereo not drawn) [drawing 107]	88%
CC(CC(C)(C)C)c1ccccc1NC(=O)c1cn(C)nc1Cl (stereo not drawn) [drawing 110]	95%
Cc1ccsc1C(=O)Nc1ccccc1C(C)CC(C)(C)C (stereo not drawn) [drawing 104]	100%
Cc1nc(C(F)(F)F)c(C(=O)Nc2ccccc2C(C)CC(C)(C)C)s1 (stereo not drawn) [drawing 112]	95%

Same assay, conditions: protective, application rate 500 g/ha, evaluation 2 days after inoculation

Compound	Efficacy in %
CC(CC(C)(C)C)c1ccccc1NC(=O)c1cn(C)nc1C(F)(F)F (stereo not drawn) [drawing 111]	97%

Test system: not listed separately
Experiment: logP determination by HPLC on reversed-phase column (C 18), EEC Directive 79/831 Annex V.A8
Format: physicochemical
Details: reversed-phase HPLC column (C 18), pH 2.3, 0.1% aqueous phosphoric acid and acetonitrile, 43° C.
Method: The determination of the logP values given in the preparation examples and tables above is carried out in accordance with EEC Directive 79/831 Annex V.A8 by HPLC (High Performance Liquid Chromatography) on a reversed-phase column (C 18). Temperature: 43° C. The determination is carried out in the acidic range at pH 2.3 using the mobile phases, 0.1% aqueous phosphoric acid and acetonitrile; linear gradient from 10% acetonitrile to 90% acetonitrile. Calibration is carried out using unbranched alkan-2-ones (of 3 to 16 carbon atoms) with known logP values (determination of the logP values by the retention times using linear interpolation between two successive alkanones).

chromatographic logP	Compound
4.02	CC(CC(C)(C)C)c1ccccc1NC(=O)c1cn(C)nc1C(Cl)Cl (stereo not drawn) [Example 1]
1.8	Cn1cc(C(=O)Cl)c(C(Cl)Cl)n1 [Example (II-1), 3-dichloromethyl-1-methyl-1H-pyrazole-4-carbonyl chloride]

Test system: Puccinia recondita
Experiment: Puccinia test (wheat)/protective
Format: in vivo
Details: wheat; application rate 500 g/ha; solvent/emulsifier a); evaluation 10 days after inoculation
Method: • a) Solvent: 50 parts by weight of N,N-dimethylacetamide Emulsifier: 1 part by weight of alkylaryl polyglycol ether • b) Solvent: 25 parts by weight of N,N-dimethylacetamide Emulsifier: 0.6 part by weight of alkylaryl polyglycol ether To produce a suitable preparation of active compound, 1 part by weight of active compound is mixed with the stated amounts of solvent and emulsifier, and the concentrate is diluted with water to the desired concentration. To test for protective activity, young plants are sprayed with the preparation of active compound at the stated application rate. After the spray coating has dried on, the plants are sprayed with a conidia suspension of Puccinia recondita. The plants remain in an incubation cabin at 20° C. and 100% relative atmospheric humidity for 48 hours. The plants are then placed in a greenhouse at a temperature of about 20° C. and a relative atmospheric humidity of 80% to promote the development of rust pustules. Evaluation is carried out 10 days after the inoculation. 0% means an efficacy which corresponds to that of the control, whereas an efficacy of 100% means that no infection is observed.

Compound	Efficacy in %
Cc1nc(Cl)sc1C(=O)Nc1ccccc1C(C)CC(C)(C)C (stereo not drawn)	100%
Cc1nc(C)c(C(=O)Nc2ccccc2C(C)CC(C)(C)C)s1 (stereo not drawn) [drawing 113]	100%
CC(CC(C)(C)C)c1ccccc1NC(=O)c1cn(C)nc1C(F)(F)F (stereo not drawn) [drawing 117]	100%
CCC(C)(C)CC(C)c1ccccc1NC(=O)c1cn(C)nc1C(F)(F)F (stereo not drawn)	100%
CCc1nn(C)c(Cl)c1C(=O)Nc1ccccc1C(C)CC(C)(C)C (stereo not drawn) [drawing 118]	100%
CCC(C)(C)CC(C)c1ccccc1NC(=O)C1=C(C)OCCS1 (stereo not drawn) [drawing 114]	100%

Same assay, conditions: wheat; application rate 500 g/ha; solvent/emulsifier b); evaluation 10 days after inoculation

Compound	Efficacy in %
CC1=C(C(=O)Nc2ccccc2C(C)CC(C)(C)C)SCCO1 (stereo not drawn) [drawing 121]	100%
Cc1occc1C(=O)Nc1ccccc1C(C)CC(C)(C)C (stereo not drawn)	100%
Cc1ccsc1C(=O)Nc1ccccc1C(C)CC(C)(C)C (stereo not drawn) [drawing 119]	100%
CCC(C)(C)CC(C)c1ccccc1NC(=O)c1ccoc1C (stereo not drawn) [drawing 122]	100%

Test system: Erysiphe graminis f.sp. hordei
Experiment: Erysiphe test (barley)/protective
Format: in vivo
Details: protective, application rate 500 g/ha, evaluation 7 days after inoculation
Method: Solvent: 25 parts by weight of N,N-dimethylacetamide Emulsifier: 0.6 part by weight of alkylaryl polyglycol ether To produce a suitable preparation of active compound, 1 part by weight of active compound is mixed with the stated amounts of solvent and emulsifier, and the concentrate is diluted with water to the desired concentration. To test for protective activity, young plants are sprayed with the preparation of active compound at the stated application rate. After the spray coating has dried on, the plants are dusted with spores of Erysiphe graminis f.sp. hordei. The plants are placed in a greenhouse at a temperature of about 20° C. and a relative atmospheric humidity of about 80% to promote the development of mildew pustules. Evaluation is carried out 7 days after the inoculation. 0% means an efficacy which corresponds to that of the control, whereas an efficacy of 100% means that no infection is observed.

Compound	Efficacy in %
Cc1nc(C(F)(F)F)c(C(=O)Nc2ccccc2C(C)CC(C)(C)C)s1 (stereo not drawn) [drawing 130]	100%
CCC(C)(C)CC(C)c1ccccc1NC(=O)C1=C(C)OCCS1 (stereo not drawn) [drawing 128]	94%
Cc1ccsc1C(=O)Nc1ccccc1C(C)CC(C)(C)C (stereo not drawn) [drawing 127]	100%
Cc1nc(C)c(C(=O)Nc2ccccc2C(C)CC(C)(C)C)s1 (stereo not drawn) [drawing 126]	100%
CCC(C)(C)CC(C)c1ccccc1NC(=O)c1ccoc1C (stereo not drawn) [drawing 129]	100%

Test system: Sphaerotheca fuliginea
Experiment: Sphaerotheca test (cucumber)/protective
Format: in vivo
Details: protective, application rate 750 g/ha, evaluation 7 days after inoculation
Method: Solvent: 49 parts by weight of N,N-dimethylformamide Emulsifier: 1 part by weight of alkylaryl polyglycol ether To produce a suitable preparation of active compound, 1 part by weight of active compound is mixed with the stated amounts of solvent and emulsifier, and the concentrate is diluted with water to the desired concentration. To test for protective activity, young cucumber plants are sprayed with the preparation of active compound at the stated application rate. 1 day after treatment the plants are inoculated with a spore suspension of Sphaerotheca fuliginea. The plants are then placed in a greenhouse at a relative atmospheric humidity of 70% and a temperature of 23° C. Evaluation is carried out 7 days after the inoculation. 0% means an efficacy which corresponds to that of the control, whereas an efficacy of 100% means that no infection is observed.

Compound	Efficacy in %
Cc1ccsc1C(=O)Nc1ccccc1C(C)CC(C)(C)C (stereo not drawn) [drawing 124]	95%
CC(F)c1nn(C)cc1C(=O)Nc1ccccc1C(C)CC(C)(C)C (stereo not drawn)	90%
Cc1nc(C)c(C(=O)Nc2ccccc2C(C)CC(C)(C)C)s1 (stereo not drawn) [drawing 123]	95%

Test system: Podosphaera leucotricha
Experiment: Podosphaera test (apple)/protective
Format: in vivo
Details: 240 h, protective, application rate 100 g/ha, evaluation 10 days after inoculation, read-out: Efficacy in %
Method: as §1, §2
To test for protective activity, young plants are sprayed with the preparation of active compound at the stated application rate. After the spray coating has dried on, the plants are inoculated with an aqueous spore suspension of the apple mildew pathogen Podosphaera leucotricha. The plants are then placed in a greenhouse at about 23° C. and a relative atmospheric humidity of about 70%.
as §3

Compound	pest or weed control at 100 g/ha
CCC(C)(C)CC(C)c1ccccc1NC(=O)c1ccoc1C (stereo not drawn) [drawing 87]	91%
CC(CC(C)(C)C)c1ccccc1NC(=O)c1c(C(F)(F)F)nn(C)c1Cl (stereo not drawn)	97%
CCC(C)(C)CC(C)c1ccccc1NC(=O)C1=C(C)OCCS1 (stereo not drawn) [drawing 86]	94%
CCc1nn(C)c(Cl)c1C(=O)Nc1ccccc1C(C)CC(C)(C)C (stereo not drawn) [drawing 90]	96%
CC(CC(C)(C)C)c1ccccc1NC(=O)c1cn(C)nc1Cl (stereo not drawn) [drawing 91]	100%
Cc1nc(C(F)(F)F)c(C(=O)Nc2ccccc2C(C)CC(C)(C)C)s1 (stereo not drawn) [drawing 93]	100%
CC(CC(C)(C)C)c1ccccc1NC(=O)c1cn(C)nc1C(F)(F)F (stereo not drawn) [drawing 89]	95%
Cc1ccsc1C(=O)Nc1ccccc1C(C)CC(C)(C)C (stereo not drawn) [drawing 85]	85%
CCC(C)(C)CC(C)c1ccccc1NC(=O)c1sccc1C (stereo not drawn) [drawing 88]	98%
